US10206399B2, “Herbicidal composition comprising uracil compound as active ingredient” (Dongbu Farm Hannong Co., Ltd., priority 2012, dated 2019)
Where two headings read alike, the source gives them in different places.

What was measured:
[1] = test system: Abutilon theophrasti; test: Dry field farming herbicidal composition test, plant mortality; format: in vivo; details: Abutilon theophrasti, read-out: Abutilon theophrasti mortality, measured value
Description: (§1) X is % damage by uracil compound (a) of formula 1 at the rate of application of p kg/ha; Y is % damage by conventional herbicidal compound (b) at the rate of application of q kg/ha; and E is the expected damage caused by compounds (a) and (b) at a rate of application of p and q kg/ha.
(§2) The expected activity for a given combination of two herbicides can be calculated using equation 1 above.

[2] = test system: wild amaranth; test: Nonselective composition of 1 uracil compound and 2 herbicidally active compounds, plant mortality; format: in vivo; details: Amaranthus caudatus, 480 h; 8 g ai/ha; read-out: Wild amaranth mortality (measured value)
Description: as §1, §2

[3] = test system: Ludwigia prostrate; test: Paddy field farming herbicidal composition test, plant mortality; format: in vivo
Description: as §1, §2

[4] = test system: wheat; test: Dry field farming herbicidal composition test, plant mortality (crop)
Description: as §1, §2

[5] = test system: Echinochloa crus; details: for Echinochloa crus mortality, measured value: 20 days after treatment; for plant mortality, measured value: Echinochloa crus
Description: as §1, §2

[6] = test system: Xanthium spinosum; test: whole plant or invertebrate
Description: as §1, §2

[7] = test system: Aeschynomene indica; test: whole plant or invertebrate
Description: as §1, §2

[8] = test system: rice plant; test: Paddy field farming herbicidal composition test, plant mortality (crop)
Description: as §1, §2

[9] = test system: Aeschynomene indica; test: Dry field farming herbicidal composition test, plant mortality; format: in vivo
Description: as §1, §2

[10] = test system: Echinochloa crus; test: Paddy field farming herbicidal composition test, plant mortality; format: in vivo; details: Echinochloa; 5 g/ha; read-out: Echinochloa crus mortality (measured value)
Description: as §1, §2

[11] = test system: ryegrass; test: Nonselective composition of 1 uracil compound and 2 herbicidally active compounds, plant mortality; format: in vivo; details: 480 h; 8 g ai/ha; read-out: ryegrass mortality (measured value)
Description: as §1, §2

[12] = test system: Digitaria sanguinalis; details: for Digitaria sanguinalis mortality, measured value: 20 days after treatment
Description: as §1, §2

[13] = test system: Monochoria vaginalis; test: Paddy field farming herbicidal composition test, plant mortality; format: in vivo; details: Pontederia vaginalis, read-out: Monochoria vaginalis mortality (measured value)
Description: as §1, §2

[14] = test system: Digitaria sanguinalis; test: Dry field farming herbicidal composition test, plant mortality; format: in vivo
Description: as §1, §2

[15] = test system: Capsella bursapastoris; test: as above; format: in vivo; details: in % (unit assumed)
Description: as §1, §2

[16] = test system: Echinochloa crus; test: as above; format: in vivo
Description: as §1, §2

[17] = test system: corn
[18] = test system: Lamium amplexicaule; test: Dry field farming herbicidal composition test, plant mortality; format: in vivo; details: in % (unit assumed)
Description: as §1, §2

[19] = test system: Alopecurus aequalis; test: as above; format: in vivo; details: in % (unit assumed)
Description: as §1, §2

[20] = test system: Abutilon theophrasti; test: whole plant or invertebrate
Description: as §1, §2

[21] = test system: Porippa islandica; test: Dry field farming herbicidal composition test, plant mortality; format: in vivo
Description: as §1, §2

[22] = 480 h, read-out: Xanthium spinosum mortality, measured value
[23] = read-out: plant mortality, measured value, 4 g/ha
[24] = read-out: plant mortality, measured value, 8 g/ha
[25] = read-out: plant mortality, measured value, 16 g/ha
[26] = 480 h, read-out: Aeschynomene indica mortality, measured value
[27] = 480 h, read-out: Abutilon theophrasti mortality, measured value

COC(=O)CCNC(=O)C(C)Sc1cc(-n2c(=O)cc(C(F)(F)F)n(C)c2=O)c(F)cc1Cl (stereo not drawn) [Compound 36, 3-[{2-[2-chloro-5-(3,6-dihydro-3-methyl-2,6-dioxo-4-trifluoromethyl-1(2H)-pyrimidinyl)-4-fluorophenylthio]-1-oxopropyl}amino]propionic acid methyl ester]
pest or weed control at 1 g/ha ([1]; 1 g/ha): 15%
pest or weed control at 2 g/ha ([1]; 2 g/ha): 35%
pest or weed control at 4 g/ha ([1]; 4 g/ha): 50%
pest or weed control at 8 g/ha [2]: 40%
Ludwigia prostrate mortality (measured value) ([3]; 5 g/ha): 35%
Ludwigia prostrate mortality (measured value) ([3]; 10 g/ha): 55%
Wheat mortality, measured value ([4]; 1 g/ha): 0
Wheat mortality, measured value ([4]; 2 g/ha): 0
Wheat mortality, measured value ([4]; 4 g/ha): 1
Data (measured value) Echinochloa crus ([5]; 4 g/ha): 0
Echinochloa crus mortality, measured value ([5]; 4 g/ha): 0%
plant mortality, measured value ([5]; 4 g/ha): 0
Data (measured value) Echinochloa crus ([5]; 8 g/ha): 5
Echinochloa crus mortality, measured value ([5]; 8 g/ha): 5%
plant mortality, measured value ([5]; 8 g/ha): 5
Echinochloa crus mortality, measured value ([5]; 16 g/ha): 10%
Data (measured value) Echinochloa crus ([5]; 20 g/ha): 17
Echinochloa crus mortality, measured value ([5]; 20 g/ha): 17%
Data (measured value) Echinochloa crus ([5]; 40 g/ha): 37
Echinochloa crus mortality, measured value ([5]; 40 g/ha): 37%
Data (measured value) Echinochloa crus ([5]; 80 g/ha): 61
Echinochloa crus mortality, measured value ([5]; 80 g/ha): 61%
mortality at 4 g/ha [6, 22]: 21%
mortality at 8 g/ha [6, 22]: 42%
mortality at 16 g/ha [6, 22]: 56%
mortality at 20 g/ha [6, 22]: 51%
mortality at 40 g/ha [6, 22]: 90%
mortality at 80 g/ha [6, 22]: 100%
pest or weed control at 4 g/ha ([6]; read-out: Data (measured value) Xanthium spinosum, 4 g/ha): 24%
pest or weed control at 8 g/ha ([6]; read-out: Data (measured value) Xanthium spinosum, 8 g/ha): 59%
pest or weed control at 16 g/ha ([6]; read-out: Data (measured value) Xanthium spinosum, 16 g/ha): 79%
pest or weed control at 20 g/ha ([6]; read-out: Data (measured value) Xanthium spinosum, 20 g/ha): 51%
pest or weed control at 40 g/ha ([6]; read-out: Data (measured value) Xanthium spinosum, 40 g/ha): 90%
pest or weed control at 80 g/ha ([6]; read-out: Data (measured value) Xanthium spinosum, 80 g/ha): 100%
pest or weed control at 4 g/ha [6, 23]: 25%
pest or weed control at 8 g/ha [6, 24]: 50%
pest or weed control at 16 g/ha [6, 25]: 70%
mortality at 4 g/ha [7, 26]: 26%
mortality at 8 g/ha [7, 26]: 52%
mortality at 16 g/ha [7, 26]: 69%
mortality at 20 g/ha [7, 26]: 56%
mortality at 40 g/ha [7, 26]: 100%
mortality at 80 g/ha [7, 26]: 100%
pest or weed control at 4 g/ha ([7]; read-out: Data (measured value) Aeschynomene indica, 4 g/ha): 19%
pest or weed control at 8 g/ha ([7]; read-out: Data (measured value) Aeschynomene indica, 8 g/ha): 46%
pest or weed control at 16 g/ha ([7]; read-out: Data (measured value) Aeschynomene indica, 16 g/ha): 61%
pest or weed control at 20 g/ha ([7]; read-out: Data (measured value) Aeschynomene indica, 20 g/ha): 56%
pest or weed control at 40 g/ha ([7]; read-out: Data (measured value) Aeschynomene indica, 40 g/ha): 100%
pest or weed control at 80 g/ha ([7]; read-out: Data (measured value) Aeschynomene indica, 80 g/ha): 100%
pest or weed control at 4 g/ha [7, 23]: 20%
pest or weed control at 8 g/ha [7, 24]: 45%
pest or weed control at 16 g/ha [7, 25]: 65%
Rice plant mortality (measured value) ([8]; 5 g/ha): 0
Rice plant mortality (measured value) ([8]; 10 g/ha): 1
Aeschynomene indica mortality, measured value ([9]; 1 g/ha): 10%
Aeschynomene indica mortality, measured value ([9]; 4 g/ha): 45%
pest or weed control at 1 g/ha ([9]; Aeschynomene indica, 1 g/ha, read-out: Aeschynomene indica mortality, measured value): 10%
pest or weed control at 2 g/ha ([9]; Aeschynomene indica, 2 g/ha, read-out: Aeschynomene indica mortality, measured value): 25%
pest or weed control at 4 g/ha ([9]; Aeschynomene indica, 4 g/ha, read-out: Aeschynomene indica mortality, measured value): 45%
pest or weed control at 5 g/ha [10]: 0%
pest or weed control at 8 g/ha [11]: 30%
Data (measured value) Digitaria sanguinalis ([12]; 4 g/ha): 0
Digitaria sanguinalis mortality, measured value ([12]; 4 g/ha): 0%
plant mortality, measured value ([12]; 4 g/ha, Digitaria sanguinalis): 0
Digitaria sanguinalis mortality, measured value ([12]; 8 g/ha): 5%
Data (measured value) Digitaria sanguinalis ([12]; 16 g/ha): 15
Digitaria sanguinalis mortality, measured value ([12]; 16 g/ha): 16%
Data (measured value) Digitaria sanguinalis ([12]; 20 g/ha): 19
Digitaria sanguinalis mortality, measured value ([12]; 20 g/ha): 19%
Data (measured value) Digitaria sanguinalis ([12]; 40 g/ha): 43
Digitaria sanguinalis mortality, measured value ([12]; 40 g/ha): 43%
Data (measured value) Digitaria sanguinalis ([12]; 80 g/ha): 71
Digitaria sanguinalis mortality, measured value ([12]; 80 g/ha): 71%
pest or weed control at […] ([13]; 2.5 g/ha): 5%
pest or weed control at 5 g/ha ([13]; 5 g/ha): 30%
pest or weed control at 10 g/ha ([13]; 10 g/ha): 50%
Digitaria sanguinalis mortality, measured value ([14]; 4 g/ha): 10%
pest or weed control at 1 g/ha ([14]; Digitaria sanguinalis, 1 g/ha, read-out: Digitaria sanguinalis mortality, measured value): 0%
pest or weed control at 2 g/ha ([14]; Digitaria sanguinalis, 2 g/ha, read-out: Digitaria sanguinalis mortality, measured value): 0%
pest or weed control at 4 g/ha ([14]; Digitaria sanguinalis, 4 g/ha, read-out: Digitaria sanguinalis mortality, measured value): 10%
Capsella bursapastoris mortality, measured value ([15]; 1 g/ha): 5
Capsella bursapastoris mortality, measured value ([15]; 2 g/ha): 25
Capsella bursapastoris mortality, measured value ([15]; 4 g/ha): 45
Echinochloa crus mortality, measured value ([16]; 4 g/ha): 5%
pest or weed control at 1 g/ha ([16]; Echinochloa, 1 g/ha, read-out: Echinochloa crus mortality, measured value): 0%
pest or weed control at 2 g/ha ([16]; Echinochloa, 2 g/ha, read-out: Echinochloa crus mortality, measured value): 0%
pest or weed control at 4 g/ha ([16]; Echinochloa, 4 g/ha, read-out: Echinochloa crus mortality, measured value): 5%
Corn mortality, measured value ([17]; 1 g/ha): 0
Corn mortality, measured value ([17]; 2 g/ha): 0
Corn mortality, measured value ([17]; 4 g/ha): 1
Lamium amplexicaule mortality, measured value ([18]; 1 g/ha): 10
Lamium amplexicaule mortality, measured value ([18]; 2 g/ha): 30
Lamium amplexicaule mortality, measured value ([18]; 4 g/ha): 50
Alopecurus aequalis mortality, measured value ([19]; 1 g/ha): 0
Alopecurus aequalis mortality, measured value ([19]; 2 g/ha): 0
Alopecurus aequalis mortality, measured value ([19]; 4 g/ha): 10
mortality at 4 g/ha [20, 27]: 11%
mortality at 8 g/ha [20, 27]: 38%
mortality at 16 g/ha [20, 27]: 51%
mortality at 20 g/ha [20, 27]: 58%
mortality at 40 g/ha [20, 27]: 100%
mortality at 80 g/ha [20, 27]: 100%
pest or weed control at 4 g/ha ([20]; read-out: Data (measured value) Abutilon theophrasti, 4 g/ha): 15%
pest or weed control at 8 g/ha ([20]; read-out: Data (measured value) Abutilon theophrasti, 8 g/ha): 35%
pest or weed control at 16 g/ha ([20]; read-out: Data (measured value) Abutilon theophrasti, 16 g/ha): 47%
pest or weed control at 20 g/ha ([20]; read-out: Data (measured value) Abutilon theophrasti, 20 g/ha): 58%
pest or weed control at 40 g/ha ([20]; read-out: Data (measured value) Abutilon theophrasti, 40 g/ha): 100%
pest or weed control at 80 g/ha ([20]; read-out: Data (measured value) Abutilon theophrasti, 80 g/ha): 100%
Porippa islandica mortality, measured value ([21]; 1 g/ha): 10
Porippa islandica mortality, measured value ([21]; 2 g/ha): 30
Porippa islandica mortality, measured value ([21]; 4 g/ha): 55
